Values belong to the molecule of their own block, whether it stands above or below them. Activity calls are given as the source filed them.
What was measured:
[1] = target: Dual specificity protein kinase CLK1 (Homo sapiens, UniProt P49759); assay: CLK1 kinase inhibitors, off-target check, dose response, selectivity assay for Dyrk1A inhibitor project, biochemical, cherry-picked samples (AID 588811)
[2] = Luminescence Cell-Based Secondary HTS screen to identify cytotoxic compounds of NIH3T3 cells. [Related pubchem assays: 1885, 1968 ]; format: functional
[3] = inhibitors of intracellular T. cruzi replication, confirmation, NIH3T3 host cells, beta-gal luminescence (AID 2044); format: functional, cell-based;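 further: intracellular parasites grown in NIH/3T3 mouse fibroblasts as host cells; luminescent beta-galactosidase reporter signal from transgenic T. cruzi replicating inside host cells; inhibitors lower the luminescence signal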
[4] = cytotoxicity toward NIH3T3 fibroblasts, dose response, counter-screen, cell-based, ATP luminescence, mouse fibroblasts (AID 2010); format: functional;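 further: cells exposed to compound for about 90 hours before reading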
[5] = inhibitors of Trypanosoma cruzi host-cell infection, confirmation, beta-gal luminescence, NIH3T3 host cells (AID 2630); format: functional, cell-based; details: Mus musculus
[6] = Luminescence Cell-Based/Microorganism Confirmation at Dose of Inhibitors of Trypanosoma cruzi Infection. [Related pubchem assays: 1885, 1968 ]; format: functional
[7] = target: 5-hydroxytryptamine receptor 5A (Homo sapiens, UniProt P47898); assay: Counterscreen for agonists of OPRM1-OPRD1 heterodimerization: luminescence-based cell-based high throughput dose response assay to identify agonists of 5-hydroxytryptamine (serotonin) 5A receptor (HTR5A). [Related pubchem assays (depositor defined):AID504326, AID504355, AID504692, AID504904, AID504905]; format: functional
5-hydroxytryptamine receptor 5A, sequence (P47898 whole entry): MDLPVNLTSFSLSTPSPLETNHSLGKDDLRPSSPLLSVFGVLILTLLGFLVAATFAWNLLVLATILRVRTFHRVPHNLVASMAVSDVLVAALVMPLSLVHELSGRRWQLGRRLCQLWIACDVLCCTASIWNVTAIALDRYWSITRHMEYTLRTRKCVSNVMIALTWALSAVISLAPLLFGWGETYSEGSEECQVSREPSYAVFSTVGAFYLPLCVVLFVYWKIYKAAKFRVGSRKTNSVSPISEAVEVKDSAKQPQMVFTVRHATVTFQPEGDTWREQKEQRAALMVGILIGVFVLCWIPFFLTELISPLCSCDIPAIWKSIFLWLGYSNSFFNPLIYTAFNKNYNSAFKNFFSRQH

[8] = target: T1, Short transient receptor potential channel 4 (Mus musculus, UniProt Q9QUQ5); assay: mouse TRPC4 channel activators, dose response, cell-based, HEK293 TRPC4/mu-opioid, Fluo-4 calcium (AID 434937); format: functional
T1 sequence (Q9QUQ5 whole entry): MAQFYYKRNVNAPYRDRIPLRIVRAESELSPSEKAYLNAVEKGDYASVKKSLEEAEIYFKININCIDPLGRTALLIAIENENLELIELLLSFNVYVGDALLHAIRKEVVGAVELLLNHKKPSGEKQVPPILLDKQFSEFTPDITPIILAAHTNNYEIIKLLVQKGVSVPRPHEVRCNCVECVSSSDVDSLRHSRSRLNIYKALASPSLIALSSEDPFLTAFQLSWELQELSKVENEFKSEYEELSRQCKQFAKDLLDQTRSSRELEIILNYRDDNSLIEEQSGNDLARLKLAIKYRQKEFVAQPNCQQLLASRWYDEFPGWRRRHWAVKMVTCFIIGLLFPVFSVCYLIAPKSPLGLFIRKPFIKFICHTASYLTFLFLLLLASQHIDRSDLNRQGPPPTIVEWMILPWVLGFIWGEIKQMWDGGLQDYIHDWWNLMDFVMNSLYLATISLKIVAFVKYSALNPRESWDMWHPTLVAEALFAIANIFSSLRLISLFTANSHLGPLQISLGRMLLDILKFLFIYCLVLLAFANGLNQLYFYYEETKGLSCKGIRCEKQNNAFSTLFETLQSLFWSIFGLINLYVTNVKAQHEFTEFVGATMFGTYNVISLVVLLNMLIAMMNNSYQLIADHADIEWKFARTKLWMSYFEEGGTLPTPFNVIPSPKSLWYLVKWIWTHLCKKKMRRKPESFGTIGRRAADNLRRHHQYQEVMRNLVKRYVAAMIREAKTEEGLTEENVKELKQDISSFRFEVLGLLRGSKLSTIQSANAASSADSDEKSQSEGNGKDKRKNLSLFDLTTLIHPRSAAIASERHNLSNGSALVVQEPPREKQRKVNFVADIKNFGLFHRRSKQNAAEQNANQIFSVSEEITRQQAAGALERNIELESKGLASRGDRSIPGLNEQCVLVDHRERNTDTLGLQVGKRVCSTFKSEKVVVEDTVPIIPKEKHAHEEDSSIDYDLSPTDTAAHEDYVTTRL

[9] = target: Opioid receptors; mu & delta (Homo sapiens, UniProt P41143+P35372); assay: agonists of MOR-DOR heterodimerization, dose response, cell-based, luminescence (AID 588407); format: functional
Mu-type opioid receptor = Mu-type opioid receptor (Homo sapiens, UniProt P35372); assay: (§1) Counterscreen for agonists of heterodimerization of the mu 1 (OPRM1) and delta 1 (OPRD1) opioid receptors: Luminescence-based cell-based high throughput dose response assay to identify agonists of OPRM1 homodimerization.; format: functional
Mu-type opioid receptor, sequence (P35372 whole entry): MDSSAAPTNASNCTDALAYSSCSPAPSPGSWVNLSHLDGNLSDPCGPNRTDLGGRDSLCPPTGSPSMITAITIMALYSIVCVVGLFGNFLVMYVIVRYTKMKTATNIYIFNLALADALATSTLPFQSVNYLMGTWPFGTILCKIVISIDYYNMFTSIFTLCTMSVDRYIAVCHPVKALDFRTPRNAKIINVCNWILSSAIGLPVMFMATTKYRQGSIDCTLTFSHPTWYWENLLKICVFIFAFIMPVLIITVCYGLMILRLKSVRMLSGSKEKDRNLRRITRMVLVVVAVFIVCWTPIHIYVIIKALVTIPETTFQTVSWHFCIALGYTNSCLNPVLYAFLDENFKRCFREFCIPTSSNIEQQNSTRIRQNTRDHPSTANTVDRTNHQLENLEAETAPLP

[10] = target: Delta-type opioid receptor (Homo sapiens, UniProt P41143); assay: as §1, with “of OPRD1” for “of OPRM1”, “homodimerization. [Related pubchem assays (depositor defined):AID504326, AID504355, AID504692, AID504904, AID504905]” for “homodimerization.”; format: functional
Delta-type opioid receptor, sequence (P41143 whole entry): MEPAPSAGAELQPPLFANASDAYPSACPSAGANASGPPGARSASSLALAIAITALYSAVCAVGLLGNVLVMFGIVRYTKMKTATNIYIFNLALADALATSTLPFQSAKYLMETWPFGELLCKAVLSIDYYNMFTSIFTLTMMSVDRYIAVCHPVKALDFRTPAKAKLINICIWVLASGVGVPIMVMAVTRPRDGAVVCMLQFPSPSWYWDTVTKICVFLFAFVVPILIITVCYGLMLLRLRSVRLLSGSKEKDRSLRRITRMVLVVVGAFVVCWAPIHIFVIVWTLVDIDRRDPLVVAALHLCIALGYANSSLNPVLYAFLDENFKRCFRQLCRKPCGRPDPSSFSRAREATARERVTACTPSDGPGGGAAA

[11] = NIH-3T3 fibroblast cytotoxicity, dose response, cytotoxicity control, cell-based, fluorescence, Alamar Blue, secondary assay (AID 2327); format: functional;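 further: NIH-3T3 mouse fibroblasts cultured with fluconazole at 8 µg/mL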
[12] = target: T2, Serine/threonine-protein phosphatase (Candida dubliniensis (strain CD36 / CBS 7987 / NCPF 3949 / NRRLY-17841) (Yeast), UniProt B9W6M3); assay: Fluorescence Cell-Based Secondary Assay to Identify Inhibitors of Calcineurin. [Related pubchem assays (depositor defined):AID1979, AID2007]; format: functional
T2 sequence (B9W6M3 whole entry): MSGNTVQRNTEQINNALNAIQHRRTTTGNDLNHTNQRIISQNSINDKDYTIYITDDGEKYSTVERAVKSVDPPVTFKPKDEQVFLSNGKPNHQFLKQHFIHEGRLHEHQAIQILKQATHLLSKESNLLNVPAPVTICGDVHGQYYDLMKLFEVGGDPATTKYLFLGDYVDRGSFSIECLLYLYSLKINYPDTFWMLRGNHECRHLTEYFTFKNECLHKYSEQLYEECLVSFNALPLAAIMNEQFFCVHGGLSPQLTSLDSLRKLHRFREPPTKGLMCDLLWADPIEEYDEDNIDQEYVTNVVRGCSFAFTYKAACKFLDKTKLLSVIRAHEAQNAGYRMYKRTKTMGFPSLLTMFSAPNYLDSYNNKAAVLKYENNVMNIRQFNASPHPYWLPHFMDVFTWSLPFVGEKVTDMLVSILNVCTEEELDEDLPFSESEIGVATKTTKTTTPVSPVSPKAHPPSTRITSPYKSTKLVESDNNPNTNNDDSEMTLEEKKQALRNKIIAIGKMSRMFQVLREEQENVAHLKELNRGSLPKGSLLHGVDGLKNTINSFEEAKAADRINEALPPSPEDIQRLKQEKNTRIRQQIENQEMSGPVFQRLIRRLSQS

[13] = Luminescence Cell-Based Dose Retest to Confirm Inhibitors of Cancer Stem Cells. [Related pubchem assays (depositor defined):AID2717, AID2721]; format: functional; details: Homo sapiens
[14] = target: Heat shock protein HSP 90-alpha (Homo sapiens, UniProt P07900); format: functional, organism-based
[15] = target: T2, Serine/threonine-protein phosphatase; assay: calcineurin pathway inhibitors in yeast reporter, dose response, S. cerevisiae, CDRE-lacZ, luminescence, secondary (AID 2388); format: functional, cell-based;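 further: yeast reporter cells carrying a calcineurin-responsive lacZ construct stimulated with calcium chloride; luminescent beta-galactosidase reporter signal in whole cells rather than isolated phosphatase activity; potency for inhibition where a drop in reporter signal means calcineurin blockade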
[16] = C. albicans growth with fluconazole, confirmation, fluorescence, retest (AID 2467); format: functional, cell-based
[17] = cytotoxicity in HMLE control line with eGFP shRNA, dose response, counter-screen for HMLE_sh_ECad selective toxicity project, cell-based, HMLE_sh_eGFP, luminescence (AID 463074); format: functional, Homo sapiens;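 further: HMLE human mammary epithelial cells expressing control shRNA against eGFP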
Streptococcus = assay: Group A Streptococcus viability loss, dose response, counter-screen for streptokinase expression inhibitor project, luminescence, BacTiterGlo (AID 1915); format: functional, organism-based;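 further: potency for reduction of bacterial viability or growth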
[18] = system: Streptococcus sp. 'group A'; assay: growth inhibition of control SK(-) GAS strain, dose response, counter-screen for streptokinase expression inhibitor project, luminescence, kanamycin, BacTiterGlo, confirmation (AID 1900); format: functional, organism-based
[19] = target: Dual specificity tyrosine-phosphorylation-regulated kinase 1A (Rattus norvegicus, UniProt Q63470); format: biochemical, Homo sapiens
[20] = target: T3, Rac GTPase-activating protein 1 (Homo sapiens, UniProt Q9H0H5); assay: MgcRacGAP GTPase-activating activity inhibitors, confirmation, biochemical, ADP Hunter fluorescence, primary and confirmatory (AID 624330); format: functional
T3 sequence (Q9H0H5 whole entry): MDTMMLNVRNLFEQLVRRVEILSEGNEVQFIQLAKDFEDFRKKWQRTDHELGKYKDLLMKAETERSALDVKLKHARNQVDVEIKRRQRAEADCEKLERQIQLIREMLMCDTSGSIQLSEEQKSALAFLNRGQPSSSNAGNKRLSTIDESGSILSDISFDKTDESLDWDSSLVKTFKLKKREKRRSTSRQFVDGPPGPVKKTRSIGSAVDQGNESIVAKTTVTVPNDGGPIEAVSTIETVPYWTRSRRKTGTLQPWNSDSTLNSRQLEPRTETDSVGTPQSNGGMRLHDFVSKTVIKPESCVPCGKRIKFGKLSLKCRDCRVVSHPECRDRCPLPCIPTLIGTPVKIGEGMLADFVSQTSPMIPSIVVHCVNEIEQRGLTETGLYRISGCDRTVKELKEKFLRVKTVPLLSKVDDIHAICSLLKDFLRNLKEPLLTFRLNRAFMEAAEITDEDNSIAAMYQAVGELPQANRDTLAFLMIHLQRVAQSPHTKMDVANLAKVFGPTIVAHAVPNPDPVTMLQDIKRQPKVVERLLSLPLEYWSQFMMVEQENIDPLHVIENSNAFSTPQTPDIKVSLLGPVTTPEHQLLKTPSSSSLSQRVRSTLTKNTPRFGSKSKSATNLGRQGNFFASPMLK

Dual specificity protein kinase CLK1, sequence (P49759 whole entry): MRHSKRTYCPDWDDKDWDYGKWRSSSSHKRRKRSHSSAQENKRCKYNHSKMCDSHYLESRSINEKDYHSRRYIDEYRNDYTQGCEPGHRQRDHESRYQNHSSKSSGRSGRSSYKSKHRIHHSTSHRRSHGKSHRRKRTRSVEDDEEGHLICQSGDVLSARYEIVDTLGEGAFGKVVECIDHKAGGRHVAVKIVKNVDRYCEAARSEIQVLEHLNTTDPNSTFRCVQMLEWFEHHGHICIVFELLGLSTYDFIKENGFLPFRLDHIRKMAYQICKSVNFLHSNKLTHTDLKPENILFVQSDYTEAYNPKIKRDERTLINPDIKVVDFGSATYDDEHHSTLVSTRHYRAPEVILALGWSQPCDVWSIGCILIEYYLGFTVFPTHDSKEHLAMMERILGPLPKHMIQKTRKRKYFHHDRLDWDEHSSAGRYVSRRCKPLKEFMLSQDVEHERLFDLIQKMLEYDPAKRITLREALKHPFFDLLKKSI

- AC50 [1]: 0.0161 µM (active)
Structure (SMILES): Cc1ccsc1CN(C)c1ncnc2ccc(-c3ccc(CO)o3)cc12

Structure (SMILES): CCn1ncc(CN2CCCC(C(=O)c3cccc(OC(C)C)c3)C2)c1C (centres undefined)
- EC50 [2]: > 195 µM (not active)
- EC50 (cells): 0.032 µM (active)
- EC50 [3]: < 0.1 µM (active)
- EC50 [4]: > 60 µM (inconclusive)
- EC50 [5]: 0.062 µM (active)
- EC50 [6]: 0.062 µM (active)

Structure (SMILES): COc1ccc(C2Nc3ccccc3C(=O)N2Cc2ccco2)cc1COc1ccc(NC(C)=O)cc1 (centres undefined)
- EC50 [7]: > 92.5 µM (inactive)
- EC50 [8]: 0.149 µM (active)
- EC50 [9]: > 0.01406 µM
- EC50 (Mu-type opioid receptor): > 92.5 µM (inactive)
- EC50 [10]: 0.0173 µM (active)

Structure (SMILES): O=C(NNC1=C(C(=O)C(F)(F)F)CCC1)c1ccc(Cl)cc1
- EC50 [11]: 23.5 µM (active)
- EC50 [12]: 13.5 µM (active)
- AC50 [13]: 2.75 µM (active)
- AC50 [14]: 3.37 µM (active)
- EC50 [15]: > 180 µM (inactive)
- EC50 [16]: 0.126 µM (active)

Structure (SMILES): CCN(c1ccccc1)S(=O)(=O)c1ccc(C(=O)Nc2nnc(-c3ccco3)o2)cc1
- AC50 [17]: 32.4 µM (active)
- AC50 [13]: 2.63 µM (active)
- EC50 (Streptococcus): 5.63 µM (active)
- EC50 [18]: 1.61 µM (active)

- AC50 [19]: 6.71 µM (active)
- IC50 [20]: 22.1 µM (active)
Structure (SMILES): Oc1ccc(-c2csc(NCc3ccco3)n2)cc1
